{
  "source": "paper PMC7552967",
  "about": "“Anti-Melanoma Activities of Artemisone and Prenylated Amino-Artemisinins in Combination With Known Anticancer Drugs” (Frontiers in Pharmacology, 2020)",
  "key": {"[1]": {"tested_on": "A375 melanoma cells", "assay": "MTT cell viability assay, A375", "type": "cell-based, human", "settings": "for IC50: MTT, 24 h, combinations 1:1", "description": "(§1) The human cell lines TK10 (human kidney adenocarcinoma), UACC62 (human melanoma) and MCF7 (human breast adenocarcinoma) were obtained from the National Cancer Institute (NCI) as part of a panel widely studied for drug screening and molecular target identification. […] The nontumorigenic human immortalized keratinocyte (HaCaT) cells were a kind donation by the School of Anatomical Sciences, Faculty of Health Sciences, University of the Witwatersrand, South Africa. […] All reagents were of analytical grade and were obtained from Merck (Darmstadt, Germany) unless stated otherwise. Cells were cultured in Dulbecco’s modified essential medium (DMEM; Hyclone, GE healthcare, South Logan, UT, USA) containing 10% fetal bovine serum (FBS), 1% penicillin/streptomycin, 1% 200 mM L-Glutamine and 1% nonessential amino acids (Lonza, Basel, Switzerland) at 37°C in a humidified atmosphere of 5% CO2. Stock solutions of the compounds were prepared in dimethyl sulfoxide (DMSO). All subsequent dilutions were prepared in serum-free DMEM and vehicle controls were included in all experiments\n(§2) The growth inhibitory effects of the compounds were tested in the 3-cell line panel consisting of TK10 (renal), UACC62 (melanoma) and MCF7 (breast) cancer cells by Sulforhodamine B (SRB) assay. […] Compounds prepared in DMSO were tested at 0.01–100 µM serial dilutions to establish initial inhibitory concentrations. […] After 24 h exposure to compounds, growth medium was removed, cells rinsed twice with 1 ml of phosphate buffered saline (PBS) and 100 µl fresh serum-free medium containing 5 mg/ml MTT solution was added MTT solution was prepared fresh for each analysis). Cells were then incubated for 4 h at 37°C, after which the MTT was removed and substituted with 100 µl dimethyl sulfoxide (DMSO) to dissolve the formazan crystals for an h at 37°C. After incubation, cell viability was determined using a microplate reader (BioTek®, Vermont, USA) at an excitation wavelength of 560 nm and emission wavelength of 630 nm with DMSO measured as a blank. Cell viability was expressed as a percentage relative to the untreated control, which is assumed to be 100% viable. For a positive control, cells were treated with 0.01% Triton-X 100 (Sigma-Aldrich, St Louis, MO, USA) for a period of 4 h. Using the MTT assay data, IC50 values were calculated using GraphPad Prism 8. Data were normalized to the positive (alleged to be 0% viable) and negative controls (presumed to be 100% viable), followed by the log-transformation of the concentration values. […] A crude therapeutic index (fold decrease in IC50 value) was calculated as the IC50 of the noncancerous cell-line/IC50 of the cancerous cell line. […] Drug interactions were evaluated for synergism, additivity or antagonism using multiple drug effect analysis, based on the median-principle. Cells were treated with the drug combinations for 24 h and analyzed. The CompuSyn (ComboSyn, Inc. NJ, USA) software package was used to generate the median-effect plots and combination index plots. […] All experiments were performed at least in triplicate and repeated independently.\n(§3) Next, the quantitative colorimetric MTT assay was used to determine in vitro cell viability with A375 (melanoma) and HaCat (nonmalignant keratinocyte) cells. […] The IC50 was used to determine a crude therapeutic index (fold increase or decline in IC50)."}, "[2]": {"tested_on": "HaCat normal keratinocytes", "assay": "MTT cell viability assay, HaCat", "type": "cell-based, human", "settings": "24 h; for CC50: Homo sapiens, HaCaT, combinations 1:1, mean ± SD, read-out: HaCat IC50", "description": "as §1, §2, §3"}, "[3]": {"tested_on": "HaCat normal keratinocytes", "assay": "LDH release membrane integrity assay, HaCat", "settings": "compounds at their IC50 concentrations, 24 h; combinations 1:1; relative to maximum release", "description": "(§4) In order to determine cell membrane integrity, the CytoTox-ONE™ Homogeneous Membrane Integrity Assay (Promega, Madison, WO, USA) was employed. This fluorometric assay measures the release of LDH from cells with damaged cell membranes. […] The manufacturer’s instructions were followed to determine the fluorescence at an excitation wavelength of 560 nm and an emission wavelength of 590 nm. In order to calculate the percentage cytotoxicity, the average fluorescent values of the background medium were subtracted from all average fluorescent values of the experimental samples and the positive control. Cytotoxicity is expressed as a percentage relative to the positive control, which is assumed to be responsible for 100% LDH release. The fold increase in LDH release was taken as the indication of the selectivity toward melanoma cell membranes, calculated as the […]. All experiments were performed at least in triplicate and independently repeated. Statistical significant differences were calculated with one-way ANOVA.\n(§5) Results are expressed relative to the untreated control and the maximum release sample, which was set as having 0% and 100% LDH release respectively. The LDH released from the nonmalignant HaCat cells and the A375 melanoma cells was then used to deduce the selectivity of the compounds against melanoma cell membranes."}, "[4]": {"tested_on": "A375 melanoma cells", "assay": "LDH release membrane integrity assay, A375", "type": "cell-based, human", "settings": "for LDH release, result in words: IC50 concentrations, 24 h (Table 3, Figure 6C); for A375 (% LDH release): compounds at their IC50 concentrations, 24 h, combinations 1:1, relative to maximum release", "description": "as §4, §5"}, "[5]": {"tested_on": "HaCat normal keratinocytes", "assay": "Intracellular ROS, DCFH-DA assay, HaCat", "type": "cell-based, human", "settings": "12 h treatment, result in words", "method": "HaCat and A375 cells were seeded at 25,000 cells/well in 96-well plates (Black plate, Clear bottom, Corning, Costar®, NY, USA) and incubated until cells were ~90% confluent. Serum-free DMEM without phenol red (Thermo Fisher Scientific, Gibco, Carlsbad, CA, USA) was used for all experiments. Cells were exposed to compounds or H2O2 (500 µM) for 12 h. Cell staining with ROS fluorescent indicator 2’,7’-dichlorodihydrofluorescein diacetate (DCFH-DA) was performed 1.5 h before the end of the 12-h exposure time. A kinetic analysis was then performed at 37°C using a microplate reader (SpectraMax® ParadigmTM Molecular Devices, Sunnyvale, CA, USA) by measuring the DCF fluorescence (excitation 485 nm and emission 535 nm) every 10 min for 1 h. […] The Bradford assay (Coomassie blue colorimetric method) was then performed in order to determine the relative amount of protein per well, as an indication of cell number per well, and all fluorescence measurements were normalized relative to the cell number. The background fluorescence produced by blank medium controls and unstained but treated cell controls were subtracted from DCFH-DA stained cells. The DCF fluorescence measured at the beginning of the analysis (time 0) was subtracted from the DCF fluorescence at the indicated times for the kinetic analysis (results not shown). […]\nThe levels of intracellular ROS were determined using the DCFH-DA assay. […]"}},
  "data": [
    {"smiles": "O=C(O)c1cc(/N=N/c2ccc(S(=O)(=O)Nc3ccccn3)cc2)ccc1O", "note": "[Sulfasalazine 8, sulfasalazine]", "values": [
      {"measurement": "IC50", "setting": "[1]; Homo sapiens, A-375, mean ± SD", "value": "569800 ± 2950", "unit": "nM"},
      {"measurement": "CC50", "setting": "[2]", "value": "2223 ± 5.37", "unit": "µM"},
      {"measurement": "HaCat (% LDH release)", "setting": "[3]", "value": "35 ± 1.02", "unit": "%"},
      {"measurement": "LDH release, result in words", "setting": "[4]", "value": "did not significantly increase the release of LDH"},
      {"measurement": "A375 (% LDH release)", "setting": "[4]", "value": "21 ± 0.96", "unit": "%"}
    ]},
    {"smiles": "COc1cc([C@@H]2c3cc4c(cc3[C@@H](O[C@@H]3O[C@@H]5CO[C@@H](C)O[C@H]5[C@H](O)[C@H]3O)[C@H]3COC(=O)[C@H]23)OCO4)cc(OC)c1O", "note": "[Etoposide 9, etoposide]", "values": [
      {"measurement": "IC50", "setting": "[1]; Homo sapiens, A-375, mean ± SD", "value": "43700 ± 1370", "unit": "nM"},
      {"measurement": "CC50", "setting": "[2]", "value": "> 13000", "unit": "µM"},
      {"measurement": "HaCat (% LDH release)", "setting": "[3]", "value": "7 ± 0.31", "unit": "%"},
      {"measurement": "LDH release, result in words", "setting": "[4]", "value": "did not significantly increase the release of LDH"},
      {"measurement": "A375 (% LDH release)", "setting": "[4]", "value": "11 ± 0.56", "unit": "%"}
    ]},
    {"smiles": "CN([N-]C(=O)CC(=O)[N-]N(C)C(=[SH+])c1ccccc1)C(=[SH+])c1ccccc1.[Cu]", "note": "[Elesclomol-Cu(II) 1-Cu, elesclomol-Cu(II)]", "values": [
      {"measurement": "Therapeutic index (TI)", "setting": "[1]; IC50 of HaCat cells/IC50 of A375 cells", "value": 2.8},
      {"measurement": "IC50", "setting": "[1]; results from elesclomol-Cu(II) reported in nM", "value": "1.72 ± 0.23", "unit": "nM"},
      {"measurement": "IC50", "setting": "[2]; results from elesclomol-Cu(II) reported in nM, combinations 1:1", "value": "4.88 ± 0.56", "unit": "nM"},
      {"measurement": "HaCat (% LDH release)", "setting": "[3]", "value": "16 ± 0.79", "unit": "%"},
      {"measurement": "LDH release, result in words", "setting": "[4]", "value": "did not significantly increase the release of LDH"},
      {"measurement": "A375 (% LDH release)", "setting": "[4]", "value": "21 ± 0.94", "unit": "%"},
      {"measurement": "Fold increase in LDH release", "setting": "[4]; selectivity toward melanoma cell membranes, A375 vs HaCat", "value": 1.3},
      {"measurement": "Intracellular ROS (DCF fluorescence fold change vs untreated control)", "setting": "[5]", "value": "no significant increased intracellular ROS"}
    ]}
  ]
}
